We go through three compounds from US7049321B2, “Methods and pharmaceutical compositions for treatment of central and peripheral nervous system disorders and compounds useful therefor” (Israel Institute for Biological Research, priority 2002, dated 2006).

“Also recorded” adds a separate entry of the source.

The nature of data set [1]: Ex vivo brain penetration in mice (GC and binding). The following applies: for half-life: mice brain.
Experimental: (§4) This calculation was based on the brain weight (2 gr) vs. total plasma volume (14 ml).
Data set [2] has as its target T1, M5 receptor (Homo sapiens, UniProt P08912).
T1 construct: expressed in transfected cells
The experiment in a line: PI hydrolysis in cells transfected with human M5. In kind it is cell-based.

Data set [3] addresses T2, M3 mAChR (Homo sapiens, UniProt P20309).
T2 construct: expressed in transfected cells
The experiment in a line: Arachidonic acid (AA) release, M3. In kind it is cell-based.

The target of data set [4] is M3 (human) (Homo sapiens, UniProt P20309). Put plainly: Binding study, M3 (human). The following applies: 10 μm.
Data set [5] deals with adenosine, adrenergic, angiotensin, BZD, bradykinin, CCK, dopamine, opiate, serotonin and other receptors, ion channels, NE transporter. Put plainly: Binding panel of other receptors, channels and transporter (AF292). The conditions noted are these: 10 μm.
Data set [6] relates to Isolated Guinea Pig Right Atrium. Put plainly: Isolated guinea pig right atrium. As for the experimental part: (§1) • 1. Astemizole (human ether-a-go-go related gene (HERG) Channel) Binding Assay. […] Isolated Guinea Pig Right Atrium (atrial fibrillation). […] Effects of AF292 (dose 5 mg/kg orally) on cardiac electrophysiological, cardio-haemodynamic in instrumented, awake dogs. Healthy trained and chronically instrumented female Beagle dogs of varying age and ranging in body weight from 9.4 to 12 kg, were used for recording of the cardiovascular parameters: heart rate, diastolic and systolic blood pressure, pressure rate product, LV dp/dt max, LV dp/dt max/pd, LV dp/dt min, cardiac output, stroke volume, systemic vascular resistance and the ECG parameters (PQ-, QRS-, QT-, QTcBazett-(QTcB), QTcFridericia-(QTcF) and QTcVan de Water-(QTcVdW) interval duration and QT-dispersion. During the last 18 hours prior to the experiments, the dogs had no access to food. Water was available ad libitum. At the beginning of each experiment, control values of the various parameters were recorded for at least 30 min. Thereafter, 5 mg/kg of AF292 (n=4) or the corresponding volume of the solvent (n=4) was administered orally by gavage. The various haemodynamic parameters were recorded continuously for 4 hours thereafter.

Data set [7] can be described thus: Cardiac electrophysiology and haemodynamics in awake dogs. It is filed as in vivo, Beagle dogs. The conditions noted are these: 5 mg/kg orally. Here is the method: as §1
For data set [8], the target named is CYP2C9 (Homo sapiens, UniProt P11712). The experiment in a line: Cytochrome P450 inhibition, CYP2C9. In kind it is in vitro ADME. The following applies: up to 10 μM. Here is the method: Cytochrome P450 activity can be an indicator for potential drug-drug interactions. AF292 was evaluated in a microtiter plate assay for P450 inhibition.
Data set [9] can be described thus: Caco-2 cell permeability. The conditions noted are these: human, Caco-2; bi-directional assay; read-out: average permeability coefficient (Papp). In kind it is in vitro ADME, human. Here is the method:
(§2) This test is used to determine intestinal permeability of tested compounds. Caco-2 cells, when grown on semipermeable filters, spontaneously differentiate in culture to form confluent monolayers which both structurally and functionally resemble the small intestinal epithelium. Because of this property they are useful as an in vitro model for the study of drug absorption and metabolism during absorption in the intestinal mucosa. Caco-2 monolayers were grown to confluence on collagen-coated, microporous, polycarbonate membranes in 12 well plates and permeability of the test material was determined.
In general terms: Caco-2 monolayers are a common model of the intestinal barrier.

The subject of data set [10] is Caco-2 monolayers. Put plainly: Caco-2 cell permeability. In kind it is in vitro ADME, human. As for the experimental part:
as §2

In data set [11] the test system is trihexyphenidyl rats. The experiment in a line: Passive avoidance in trihexyphenidyl-treated rats. In kind it is in vivo, Wistar rats. The following applies: 0.03 mg/kg, po, 72 hrs delay; DDW 93.1±29.0.
In data set [12] the test system is cholesterol-fed rabbits. The experiment in a line: Aβ immunoreactivity in cortex of hypercholesterolemic rabbits. The following applies: 1 mg/kg, s.c., 10 weeks. It is filed as in vivo, New Zealand white rabbits.
Text: New Zealand white male rabbits were allowed food and water ad libitum. Animals were fed either standard chow or chow supplemented with 2% cholesterol by weight (Purina) for 10 weeks. […] Following 10 weeks of treatment animals were sacrificed and evaluated for Aβ immunohistochemistry, when all sections were stained simultaneously.
Data set [13] deals with ApoE. The experiment in a line: ApoE synthesis and secretion in primary type 1 astrocytes. In kind it is cell-based, rat. As for the experimental part: Primary cultures of type 1 astrocytes were derived from the cortex of Sprague Dawley rats. The compounds tested were dissolved in the culture media and added to cells for 24, 48, 72 and 96 hrs. Media was then removed and kept frozen until ApoE protein levels were evaluated by immunoblot analysis as described in Poirier et al Neuroscience 55: 81–90 (1993). Alternatively the methods of Cedazo-Minuez et al [Neurosci 105: 651–661, 2001} may be employed.

In data set [14] the target is Serotonin, 5HT3 (Homo sapiens, UniProt P46098). The experiment in a line: Serotonin 5HT3 binding. The following applies: at 10^−4 M.
Data set [15] relates to Opiods/Opiate, Non-Selective. The experiment in a line: Opiate non-selective binding. The following applies: at 10^−4 M.
Data set [16] relates to AF64A-injected rats. The experiment in a line: Morris water maze in AF64A-injected rats. It is filed as in vivo, Sprague-Dawley rats. Here is the method: AF64A or saline-injected (6 months old) Sprague-Dawley rats were tested in the Morris Water Maze (MWM) task. The paradigm used assesses spatial learning abilities in a reference memory regimen, and involves training (days 1–4), transfer test (Probe trial—day 4, 3 min following the last training trial) and reversal test (day 5).
Drugs and PBS were administered once a day for 5 days before starting the behavioral testing, and then for the duration of the 5-day experiment, 30 min before testing.
The three measures, escape latency, path length and swimming speed were analyzed by MANOVA, followed by simple main effects contrast analysis.

Data set [17] can be described thus: Chronic toxicity up to 13 weeks, rat. In kind it is in vivo, Wistar rat.
Data set [18] deals with GSK-3β. The experiment in a line: GSK-3β activity in rat hippocampal neurons. In kind it is cell-based. As for the experimental part:
(§3) This study was performed in rat hippocampal primary cell cultures using the methods described by Garrido J L et al. (FASEB J 2002; 16:1982).

In data set [19] the test system is β-catenin. Put plainly: β-catenin stabilization in rat hippocampal neurons. In kind it is cell-based. Here is the method:
as §3

Data set [20] can be described thus: in vivo. The following applies: rat.
Experimental: as §4
Data set [21] can be described thus: physchem.
Experimental: as §4
Data set [22] can be described thus: pKa and free-base fraction of AF267B. The conditions noted are these: pH=7.35 of CSF, calculated from pKa.
Experimental: as §4

T2 sequence (P20309 whole entry): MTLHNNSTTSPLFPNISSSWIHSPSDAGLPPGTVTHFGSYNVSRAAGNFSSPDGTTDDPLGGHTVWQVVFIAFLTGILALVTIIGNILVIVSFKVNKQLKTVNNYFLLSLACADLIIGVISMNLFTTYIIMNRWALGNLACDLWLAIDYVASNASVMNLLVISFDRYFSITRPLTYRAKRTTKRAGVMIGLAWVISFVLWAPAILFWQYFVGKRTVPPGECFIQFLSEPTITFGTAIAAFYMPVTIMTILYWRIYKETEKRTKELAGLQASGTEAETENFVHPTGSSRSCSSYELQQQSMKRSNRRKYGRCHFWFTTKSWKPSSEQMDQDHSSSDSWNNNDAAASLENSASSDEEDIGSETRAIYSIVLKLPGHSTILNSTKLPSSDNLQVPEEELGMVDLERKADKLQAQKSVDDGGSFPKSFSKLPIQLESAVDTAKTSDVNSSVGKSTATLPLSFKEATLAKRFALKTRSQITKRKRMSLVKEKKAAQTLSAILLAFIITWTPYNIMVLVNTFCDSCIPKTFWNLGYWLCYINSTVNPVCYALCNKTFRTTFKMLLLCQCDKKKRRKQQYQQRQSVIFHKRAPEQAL
T1 sequence (P08912 whole entry): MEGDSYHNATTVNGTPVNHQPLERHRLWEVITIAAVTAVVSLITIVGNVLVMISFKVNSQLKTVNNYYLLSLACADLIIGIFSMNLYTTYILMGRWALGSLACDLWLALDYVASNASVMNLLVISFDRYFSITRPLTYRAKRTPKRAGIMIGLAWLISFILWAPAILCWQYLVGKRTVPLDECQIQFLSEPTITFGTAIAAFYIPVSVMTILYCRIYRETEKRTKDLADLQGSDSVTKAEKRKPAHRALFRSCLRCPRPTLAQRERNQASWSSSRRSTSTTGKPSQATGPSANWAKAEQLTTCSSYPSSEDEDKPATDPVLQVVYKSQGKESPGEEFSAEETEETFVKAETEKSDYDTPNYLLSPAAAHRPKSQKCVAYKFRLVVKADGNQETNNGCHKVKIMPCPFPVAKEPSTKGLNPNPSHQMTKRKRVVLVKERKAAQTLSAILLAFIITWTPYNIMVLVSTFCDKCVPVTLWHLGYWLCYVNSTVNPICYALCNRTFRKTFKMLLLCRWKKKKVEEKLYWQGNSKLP
M3 (human), sequence (P20309 whole entry): as the sequence (P20309 whole entry) above
Serotonin, 5HT3, sequence (P46098 24-478): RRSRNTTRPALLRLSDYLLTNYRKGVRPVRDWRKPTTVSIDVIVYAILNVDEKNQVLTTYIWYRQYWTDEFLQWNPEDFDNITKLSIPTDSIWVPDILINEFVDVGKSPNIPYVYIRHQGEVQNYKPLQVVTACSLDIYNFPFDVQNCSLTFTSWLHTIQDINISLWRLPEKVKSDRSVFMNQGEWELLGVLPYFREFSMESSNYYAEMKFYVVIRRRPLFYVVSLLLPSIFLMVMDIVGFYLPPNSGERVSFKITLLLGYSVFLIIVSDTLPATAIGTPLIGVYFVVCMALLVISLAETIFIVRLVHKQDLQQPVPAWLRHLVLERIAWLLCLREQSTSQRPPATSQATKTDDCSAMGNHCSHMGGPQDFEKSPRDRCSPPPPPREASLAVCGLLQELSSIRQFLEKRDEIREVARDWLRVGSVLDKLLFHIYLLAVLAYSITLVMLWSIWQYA
CYP2C9, sequence (P11712 whole entry): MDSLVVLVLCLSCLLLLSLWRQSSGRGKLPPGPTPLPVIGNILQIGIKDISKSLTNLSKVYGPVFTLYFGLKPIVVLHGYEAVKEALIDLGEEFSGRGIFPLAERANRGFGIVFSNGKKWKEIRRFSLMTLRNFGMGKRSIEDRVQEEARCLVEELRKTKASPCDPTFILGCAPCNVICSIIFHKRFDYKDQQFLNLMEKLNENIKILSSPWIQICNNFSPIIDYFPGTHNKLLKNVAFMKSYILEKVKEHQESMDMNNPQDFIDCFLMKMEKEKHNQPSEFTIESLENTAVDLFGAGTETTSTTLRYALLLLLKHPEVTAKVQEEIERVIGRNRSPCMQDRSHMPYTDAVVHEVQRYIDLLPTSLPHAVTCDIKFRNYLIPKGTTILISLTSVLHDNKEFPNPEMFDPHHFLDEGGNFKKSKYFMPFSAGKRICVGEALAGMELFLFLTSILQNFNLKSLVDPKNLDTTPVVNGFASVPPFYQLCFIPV

Consider `CC1=NCC2(CCN(C)CC2)S1` [AF150(S), 2,8-Dimethyl-1-thia-3,8-diaza-spiro[4.5]dec-2-ene], for which the brain penetration time in [1] (iv) was found to be 1 min. Besides, in data set [1] (mouse, in vivo, 100 μmole/kg), the mean residence time (MRT) was 50 min. Moreover, the half-life in data set [1] (mouse, in vivo, iv, T1/2, first phase) turned out to be 21 min; in data set [1] (mouse, in vivo, iv, T1/2, second phase), 53 min.
Take `CC[C@@H]1SC2(CCNCC2)NC1=O` [AF292, (S)-2-Ethyl-1-thia-4,8-diaza-spiro[4.5]decan-3-one]: in [2], the “PI turnover, M5, agonist activity” value is listed as “No activity; also recorded: PI, AA: M5 mAChR - no effect as agonist”. The “AA release, M3 mAChR, agonist activity” value in data set [3] was “inactive as an agonist; also recorded: PI., AA: M3 mAChR: Not active as agonist”. Besides, the “Binding, %” value in data set [4] is 55%. Moreover, the Binding to panel entry in data set [5] was “no binding at all”. Besides, in data set [6], the Contractile force entry is “no significant effect on contractile force” and the Contractile rate entry is reported as “tended to slightly reduce the contractile rate”. Besides, the “Hemodynamic and ECG parameters” value in data set [7] was “no statistically significant and relevant effect”. Besides, the “Inhibition of CYP2C9” value in data set [8] is given as “did not induce significant inhibition”. In addition, in data set [9], the Papp was 17.4 ×10⁻⁶ cm/s. The Absorption potential ranking entry in data set [10] is recorded as “high absorption potential”. The Retention latency in [11] was 225.9 ± 36 s.
With `CC[C@@H]1SC2(CCN(C)CC2)NC1=O` [AF267B, (S)-2-ethyl-8-methyl-1-thia-4,8-diaza-spiro[4.5]decan-3-one], the “Reduction of intensity of the immunoreactivity” value in data set [12] is “approximately 50%”. The “Reduction of number of neurons expressing Aβ immunoreactivity” value in [12] is 25–30%. Moreover, the inhibition at 0.0001 µM in data set [13] (Rattus norvegicus, Astrocyte, at 0.1 nM, read-out: Inhibition of ApoE production) lay in the range of 60 to 80%. The ApoE production entry in data set [13] (up to 96 hrs) is reported as “inhibits the production of ApoE”. The inhibition at 100 µM in [14] came to 51.3%. In addition, the “% inhibition” value in [15] is given as 52.5%. For the same compound, the Reversal test result in data set [16] (1 mg/kg) is reported as “tendency for improvement”; in [16] (3 mg/kg), “tendency for impairment”. For the same compound, in data set [16] (1 mg/kg), the “Training, escape latency” value was “tendency for improvement”. The Training performance entry in data set [16] (3 mg/kg) is recorded as “tended to impair performance”. In addition, the “Learning (training)” value in [16] (0.3, 1, 3 mg/kg po) is listed as “no significant effect on learning”. For the same compound, the “Probe trial, spatial bias (escape latency)” value in data set [16] (all doses) was “complete spatial bias”. For the same compound, the “Dose at which effects are seen” value in [17] is above 40 mg/kg. For the same compound, the “GSK-3β activity vs. control in presence of Aβ fibrils” value in [18] (10 μM, Aβ fibrils (10 μM) alone 370%) was determined as 150%. In addition, the “Decrease of GSK-3β activity” value in data set [18] (100 μm) is on record as 60%. Further, the “soluble β-catenin level” value amounted to 100% in data set [19] (1 μM), 300% in data set [19] (10 μM) and 350% in data set [19] (100 μM). In data set [19] (1 μM, Aβ1–40 (5 μM)), the “nuclear β-catenin vs control” value came to 140%. Besides, the “Aβ-induced degradation of soluble β-catenin” value in [19] (100 μM, Aβ1–40 (5 μM)) was “this degradation was prevented”. Also, the Kp in [20] (female, iv, 1 mg/kg) is 1.32; in [20] (female, po, 2 mg/kg), 1.25; in data set [20] (male, iv, 1 mg/kg) it was 1.79; in data set [20] (male, po, 2 mg/kg), 2.43. For the same compound, the pKa in data set [21] was 7.8. In data set [22], the “% of compound in free base form” value is 26.2%.

Broadly, the MRT is a mean duration of stay, worked out from the concentration-time curve. Broadly, the half-life is the time needed for the level to fall by half in the phase considered. Higher therefore signals slow decline. A word on the Papp: it is the rate of passage across a membrane or cell layer, normalised by area and donor concentration. The inhibition is the share of the control response that was lost under treatment. The % inhibition is the relative decrease from the control value, in per cent. The low end stands for a response near the control, the high end for a response far below the control. The pKa is the pH at which an ionisable group is half protonated. Read a low pKa as a stronger acid or weaker base.
